Measured values taken from PubChem BioAssay (NCI).
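Step 1: Grow cells in 96-well plates. Step 2: Expose to compound for 48 hours at 5 concentrations. Step 3: Interpolate endpoints linearly; if unreached, use highest concentration. At the TGI there is no net growth.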 Where a SMILES comes first, the peptide text is derived from it. The star is where a group is joined. Boc = CC(C)(C)OC(=O)*; OBn = c1ccc(CO*)cc1; Bn = c1ccc(C*)cc1

Experiments:
Test in all cases: NCI anticancer screen, dose series, 48 h
A549 NSCLC = tested on: A549 NSCLC
ACHN renal = tested on: ACHN renal
CCRF-CEM leukemia = tested on: CCRF-CEM leukemia
HL-60(TB) leukemia = tested on: HL-60(TB) leukemia
HT29 colon = tested on: HT29 colon
K-562 leukemia = tested on: K-562 leukemia
MDA-N = tested on: MDA-N
NCI-H226 lung = tested on: NCI-H226 lung
OVCAR-5 ovarian = tested on: OVCAR-5 ovarian
SK-MEL-28 melanoma = tested on: SK-MEL-28 melanoma
BT-549 breast = tested on: BT-549 breast

Structure (SMILES) | TGI (A549 NSCLC) [µM] | TGI (ACHN renal) [µM] | TGI (CCRF-CEM leukemia) [µM] | TGI (HL-60(TB) leukemia) [µM] | TGI (HT29 colon) [µM] | TGI (K-562 leukemia) [µM] | TGI (MDA-N) [µM] | TGI (NCI-H226 lung) [µM] | TGI (OVCAR-5 ovarian) [µM] | TGI (SK-MEL-28 melanoma) [µM] | TGI (BT-549 breast) [µM]
CCCCOP(=O)(OCCCC)C(NS(=O)(=O)c1ccccc1)(C(=O)OCC)C(F)(F)F (configuration not stated) | > 100 | 85.1 | 72.5 | 47.8 | > 100 | 59.9 | > 100 | 74.9 | > 100 | 78.8 | 
C(=C/c1ccc2nc(-c3ccc(/C=C/C=N/NC4=NCCCN4)cc3)cn2c1)/C=N/NC1=NCCCN1 | 22 | > 100 | > 100 |  |  | 79.9 | > 100 | 32.6 | > 100 | > 100 | > 100
NCCCCN(CCCN)C(=O)OCc1ccccc1 | > 100 | > 100 | > 100 | > 100 | > 100 | > 100 |  | > 100 | > 100 | > 100 | > 100
COc1cc(C(C)(C)C)c(OC(=O)/C=C/C(=O)O/C=C/[N+](=O)[O-])c(C(C)(C)C)c1 | 55 | > 100 | 37.3 | 4.29 | 56.6 | > 100 | > 100 | > 100 | > 100 |  | 
COc1ccc(/C=N/N=C(N)N)c(C(=O)O)c1OC | > 100 | > 100 | > 100 | > 100 | > 100 | > 100 |  |  |  | > 100 | 
CN(C)c1ccc(C(=C2C=CC(=[N+](C)C)C=C2)c2c(O)c(S(=O)(=O)[O-])cc3cc(S(=O)(=O)O)ccc23)cc1 | > 100 | > 100 |  |  | > 100 | > 100 | > 100 | > 100 | > 100 | > 100 | > 100
O=C(NC12CC3CC(CC(C3)C1)C2)n1cnc2cncnc21 | > 100 | > 100 | > 100 | > 100 | > 100 | > 100 | > 100 |  | > 100 | > 100 | > 100
COc1ccc(/C=C/C=C2C(=O)NC(=S)NC2=O)cc1 | 46.2 | 16.7 | 5.69 |  | 19.6 | > 31.9 | 15.2 | 44.6 | 47.1 | 3.45 | 4.62
COC(CO[Si](C)(C)N[Si](C)(C)OCC(OC)c1ccccc1)c1ccccc1 (configuration not stated) | > 100 | > 100 | > 100 | > 100 |  | > 100 | > 100 | > 100 | > 100 | > 100 | > 100
COc1c2c(cc3oc(=O)ccc13)OC(C)(C)C=C2 | > 125 | 70 |  | 45.2 | > 125 | > 125 | 91.7 | > 125 |  | 75.9 | 70.2
CCCc1c(OC)c(O)c2c(=O)cc(OC)c3c4c(OC)cc(=O)c5c(O)c(OC)c(CCC)c(c1c23)c54 | 25.8 | 17 | 50.1 |  | 17.9 | > 100 | 22.7 | 14.8 | 51.1 | 21.1 | 19.8
O=c1[nH]c(=O)n(COCCO)cc1-c1ccccc1 | > 100 | > 100 | > 100 | > 100 | > 100 | > 100 | > 100 |  | > 100 | > 100 | 
O=C(O)CC(Cc1ccccc1)C(=O)O (configuration not stated) | > 100 | > 100 | > 100 |  | > 100 | > 100 | > 100 | > 100 | > 100 | > 100 | > 100
NC(=O)NC1=NCCC(=O)N1CCc1c[nH]c2ccccc12 | 54.8 | 65.1 | 37.9 | 42.5 | 47.3 | 32.9 | 60.1 | 39.9 | > 100 | 41.2 | 
Cc1ccc(N=c2oc3c(ccc4ccccc43)nc2Nc2ccc(C)cc2)cc1 | > 100 | > 100 | > 100 | > 100 | > 100 | > 100 | > 100 | > 100 | > 100 | > 100 | 
CN(C)CCNc1ccccn1 | > 100 | > 100 |  | > 100 | > 100 | > 100 | > 100 | > 100 | > 100 | > 100 | > 100
O=C(CSCC(=O)N/N=C/c1ccc(F)cc1)N/N=C/c1ccc(F)cc1 | > 100 | > 100 |  | > 100 | > 100 | > 100 |  | > 100 | > 100 | > 100 | 
CSCC[C@@H](NC(=O)[C@H](CC(C)C)NC(=O)C(Cc1cnc[nH]1)NC(=O)CNC(=O)[C@@H](NC(=O)[C@H](C)NC(=O)[C@H](Cc1cn(C=O)c2ccccc12)NC(=O)[C@H](CCC(N)=O)NC(=O)[C@@H](N)CC(N)=O)C(C)C)C(N)=O (some centres not stated) | > 100 |  | > 100 | > 100 | > 100 | > 100 |  | > 100 | > 100 | > 100 | 
c1ccc2c(c1)N=c1ccccc1=P21c2ccccc2Nc2ccccc21 | 15.3 | 10.9 | 0.737 |  | 10.1 | > 100 | 4.07 | 3.65 | 3.81 | 11.7 | 2.63
COC(=O)c1ccc2c(c1)CC1(C2)Cc2ccc3c(c2C1)CCC3 (configuration not stated) | > 100 | > 100 | > 100 | 39.7 | 55.4 | > 100 | 17.8 | > 100 | > 100 | > 100 | 
CC(C)OCC(O)COc1cc(=O)oc2ccccc12 (configuration not stated) | > 100 | > 100 | > 100 | > 100 | > 100 | > 100 | > 100 |  | > 100 | > 100 | 
CC(C)CC(NC(=O)C(CCC(=O)OCc1ccccc1)NC(=O)OC(C)(C)C)C(=O)NC(COCc1ccccc1)C(=O)NC(Cc1ccccc1)C(=O)O (configuration not stated) (Boc-E(OBn)LS(Bn)F-OH; configuration not given here) | > 100 | > 100 |  | > 100 | > 100 | > 100 | > 100 | > 100 | > 100 | > 100 | > 100
